Measured values from patent US20250268967A1, “NUTRACEUTICAL COMPOUNDS USEFUL IN THE TREATMENT OF CORONAVIRUS DISEASE” (priority 2020, published 2025).
Where two headings read alike, the source gives them in different places.

Assays:
[1] = infected patients, 60 mg daily for four months; in words; cited from earlier work
[2] = target: COVID-19 protease (Severe acute respiratory syndrome coronavirus 2, UniProt P0DTD1); details: molecular docking, in words; cited from earlier work
[3] = in vitro; details: human
[4] = tested on: SARS-CoV-2; experiment: microbe, parasite or virus in culture; assay type: cell-based
[5] = tested on: SARS-CoV-2; experiment: In vitro antiviral immunostaining assay in Calu-3 cells; assay type: cell-based
[6] = tested on: Calu-3 cells; details: in words
[7] = from three publications; read-out: cytotoxicity (CC50); cited from earlier work
[8] = tested on: SARS-CoV-2; experiment: In vitro antiviral assay, VeroE6 cells and Calu3 cells (cell line not separated in the statement); details: for inhibition of the SARS-CoV-2 virus: cell line not specified (FIG. 2, FIG. 6)
[9] = target: T1, α-globulin (vitamin D-Binding Protein [DBP]) (Homo sapiens, UniProt P02774); details: binds weakly to α-globulin (DBP) after absorption via chylomicrons; cited from earlier work
T1 sequence (P02774 17-474): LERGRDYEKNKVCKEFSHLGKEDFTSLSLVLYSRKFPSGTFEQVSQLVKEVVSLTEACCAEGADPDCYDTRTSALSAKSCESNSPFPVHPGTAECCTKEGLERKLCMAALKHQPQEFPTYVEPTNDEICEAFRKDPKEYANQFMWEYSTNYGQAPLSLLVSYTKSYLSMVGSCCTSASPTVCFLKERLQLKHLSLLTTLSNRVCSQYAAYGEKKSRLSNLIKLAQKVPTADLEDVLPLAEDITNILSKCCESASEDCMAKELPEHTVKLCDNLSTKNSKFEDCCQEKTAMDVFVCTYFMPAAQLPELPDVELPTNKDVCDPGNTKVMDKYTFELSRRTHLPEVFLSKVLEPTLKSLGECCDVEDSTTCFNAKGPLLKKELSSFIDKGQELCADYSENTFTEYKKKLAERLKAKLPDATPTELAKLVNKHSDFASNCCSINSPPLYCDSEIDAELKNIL

[10] = tested on: SARS-CoV-2; experiment: In vitro antiviral immunostaining assay in Vero E6 cells

Q: Which clinical toxicity [1] does the source give for `CC1=C(/C=C/C(C)=C/C=C/C(C)=C/C=C/C=C(C)/C=C/C=C(C)/C=C/C2=C(C)CCCC2(C)C)C(C)(C)CCC1` [Beta Carotene, Beta-carotene] here?
A: No clinical toxicity was observed

Q: Which “predicted binding affinity to the COVID-19 protease” value [2] does the source give for `C[C@@H]1C(=O)O[C@H]2C[C@@]34[C@H]5C[C@@H](C(C)(C)C)[C@]36[C@@H](OC(=O)[C@@H]6O)O[C@@]4(C(=O)O5)[C@]21O` [Ginkgolide A] here?
A: high binding affinity

Q: For `CC(C)=CCC[C@](C)(O)[C@@H]1CC=C(C)CC1` [Levomenol, α-(−)-bisabolol], which CC50 [3] is on record?
A: 3 µM

Q: What about the “selectivity index (SI)” value ([4]; Calu-3 cells, from CC50 and EC50) of the same molecule?
A: 26.1

Q: What about the EC50 ([4]; Severe acute respiratory syndrome coronavirus 2, Calu-3 cells infected with SARS-CoV-2, FIG. 4, read-out: EC50 (antiviral activity against SARS-CoV-2)) of the same molecule?
A: 0.115 µM

Q: What about the “inhibition of the virus” value ([5]; Calu-3 cells infected with SARS-CoV-2, FIG. 3) of the same molecule?
A: about 60%

Q: And the “cytotoxicity, as measured by inhibition of cell viability” value [6]?
A: not observed

Q: Which CC50 [7] does the source give for `CCC(CC)COC(=O)[C@H](C)N[P@](=O)(OC[C@H]1O[C@@](C#N)(c2ccc3c(N)ncnn23)[C@H](O)[C@@H]1O)Oc1ccccc1` [Remdesivir] here?
A: > 100 µM

Q: Which “inhibition of the SARS-CoV-2 virus” value [8] does the source give for `C=C1CC[C@H](O)C/C1=C/C=C1\CCC[C@]2(C)[C@@H]([C@H](C)CCCC(C)C)CC[C@@H]12` [Vitamin D3, cholecalciferol] here?
A: about 100%

Q: And the protein binding [9]?
A: 50-80%

Q: And the IC50 ([5]; Severe acute respiratory syndrome coronavirus 2, Calu-3)?
A: ~22.3 µM

Q: What about the EC100 ([10]; Vero E 6 cells, SARS-CoV-2, in words) of the same molecule?
A: Achieved

Q: What about the IC50 ([10]; VeroE6 cells, FIG. 2) of the same molecule?
A: ~33.5 µM

Q: For `[Zn]` [Zinc], which “cytotoxicity, as measured by cell viability” value ([8]; FIG. 6, in words) is on record?
A: not observed

Q: And the “inhibition of the SARS-CoV-2 virus” value [8]?
A: about 75%
